Earlier results on 1 compound are cited in US11666537B2, “Solid oral dosage form of irinotecan for the treatment of cancer” (Oncoral Pharma ApS, priority 2014, dated 2023).

The series relates to tumor cells. Particulars: human and rodent tumor cell lines.

For `CCc1c2c(nc3ccc(O)cc13)-c1cc3c(c(=O)n1C2)COC(=O)[C@]3(O)CC` [SN-38], the “times more cytotoxic than irinotecan” value is on record as 100-1000 times.
